pIC50: −log10 of the molar value. Some results are limits rather than exact numbers.

The target in the assay is T1, full length active recombinant SYK enzyme (Homo sapiens, UniProt P43405).
T1 construct: full length active recombinant SYK enzyme (Millipore, CA); purchased Millipore, CA
Briefly: Inhibition of Syk tyrosine phosphorylation activity (LANCE TR-FRET kinase assay). The assay is classed as biochemical. As to conditions: 1 nM active SYK enzyme, 550 nM SYK-substrate, 100 μM ATP, 1 hour at room temperature. Here is the method:
The in vitro and in vivo human Syk activities of the inventive compounds can be determined by various procedures known in the art, such as a test for their ability to inhibit the activity of human plasma Syk. […] The IC50 value is the concentration (in nM) of the compound required to provide 50% inhibition of human Syk proteolytic activity.
An in vitro assay for detecting and measuring inhibition activity against Syk is as follows:
SYK tyrosine phosphorylation activity is measured using the LANCE™ Technology developed by Perkin Elmer Life and Analytical Sciences (Boston, Mass.). LANCE™ refers to homogeneous time resolved fluorometry applications using techniques such as time-resolved fluorescence resonance energy transfer assay (TR-FRET) (see generally for procedures in Perkin Elmer Application Note—How to Optimize a Tyrosine Kinase Assay Using Time Resolved Fluorescence-Based LANCE Detection, wwww.perkinelmer.com/lifesciences). The assay principle involves detection of a phosphorylated substrate using energy transfer from a phosphospecific europium-labeled antibody to streptavidin-allophycocyanin as an acceptor.
Molecules are reconstituted in 30% DMSO and serially diluted 1:3 with the final dilution containing DMSO in the absence of the candidate molecule. The final DMSO concentration in the assay is 3%. Kinase assays are performed as a two part reaction. The first reaction is a kinase reaction and which comprises of a candidate molecule, full length active recombinant SYK enzyme (Millipore, CA) and biotin-labeled SYK-specific substrate biotin-DEEDYESP-OH. The second reaction involves termination of the kinase reaction and the simultaneous addition of the detection reagents-europium-labeled anti-phosphotyrosine reagent (Eu-W1024-PY100, Perkin Elmer, Boston, Mass.) and Streptavidin-Allophycocyanin detection reagent (SA-APC, Prozyme, CA). The kinase reaction is performed in a black U-bottom 96-well microtitre plate. The final reaction volume is 50 μL and contains a final concentration of 1 nM active SYK enzyme, 550 nM SYK-substrate, and 100 μM ATP diluted in a buffer containing 50 mM Tris pH 7.5, 5 mM MgCl2, and 1 mM DTT. The reaction is allowed to proceed for 1 hour at room temperature. The quench buffer contains 100 mM Tris pH 7.5, 300 mM NaCl2, 20 mM EDTA, 0.02% Brij35, and 0.5% BSA. The detection reagents are added to the reaction mixture at the following dilutions-1:500 for Eu-W1024-PY100 and 1:250 for SA-APC. The kinase reaction is terminated by the addition of 50 μL quench buffer containing the detection reagents. The detection is allowed to proceed for 1 hr at room temperature. Detection of the phosphorlated substrate in the absence and presence of inhibitors is measured in the TR-FRET instrument, Analyst HT (Molecular Probes, Sunnyvale, Calif.) and the condition for measurements are set up using CriterionHost Release 2.0 (Molecular Probes, Sunnyvale, Calif.). The settings used are a follows: excitation 360 nm, emission 665-7.5 nm, beam splitter 350 nm 50/50, flash 100 pulses, delay 60 us, integration 400 us, z-height 2 mm. Inhibition of SYK-tyrosine kinase activity is calculated as the maximum response observed in the presence of inhibitor, compared to that in the absence of inhibitor. IC50s were derived by non-linear regression analysis.
The term pIC50 denotes the IC50 on a negative log10 scale, so that one unit is a factor of ten. For the compound `NC(=O)c1ncc(N[C@@H]2CCCC[C@@H]2N)cc1Nc1cnsc1` [Example 28, 5-((1R,2S)-2-aminocyclohexylamino)-3-(isothiazol-4-ylamino)picolinamide], the pIC50 is 6.00 to 7.00.

As to `Cc1cc(Nc2cc(N[C@H](CCS(C)(=O)=O)C(N)=O)cnc2C(N)=O)sn1` [Example 45, (R)-5-(1-amino-4-(methylsulfonyl)-1-oxobutan-2-ylamino)-3-(3-methylisothiazol-5-ylamino)picolinamide], the pIC50 was 7.00 to 8.00.

Consider `CC[C@@H](Nc1cnc(C(N)=O)c(Nc2cc(C3CC3)ns2)c1)C(N)=O` [Example 38, (R)-5-(1-amino-1-oxobutan-2-ylamino)-3-(3-cyclopropylisothiazol-5-ylamino)picolinamide], for which the pIC50 is 8.00 to 9.00.

Take `NC(=O)c1ncc(N[C@@H]2CCCC[C@@H]2N)cc1Nc1cc(-c2ccccc2)no1` [Example 8, 5-((1R,2S)-2-aminocyclohexylamino)-3-(3-phenylisoxazol-5-ylamino)picolinamide]: the pIC50 is 8.00 to 9.00.

On to `Cc1cc(Nc2cc(NC3(C(N)=O)CC3)cnc2C(N)=O)sn1` [Example 32, 5-(1-carbamoylcyclopropylamino)-3-(3-methylisothiazol-5-ylamino)picolinamide], for which the negative-log IC50 (pIC50) is 8.00 to 9.00.

`CCc1cc(Nc2cc(N[C@@H]3CCCC[C@@H]3N)cnc2C(N)=O)on1` [Example 37, 5-((1R,2S)-2-aminocyclohexylamino)-3-(3-ethylisoxazol-5-ylamino)picolinamide]: the negative logarithm of the IC50 (pIC50) was 7.00 to 8.00.

In the case of `CC(C)C[C@@H](Nc1cnc(C(N)=O)c(Nc2ccc3ncccc3c2)c1)C(N)=O` [Example 16, (R)-5-(1-amino-4-methyl-1-oxopentan-2-ylamino)-3-(quinolin-6-ylamino)picolinamide], the pIC50 is 7.00 to 8.00.

Consider `Cc1cc(Nc2cc(N[C@H](CC(F)(F)F)C(N)=O)cnc2C(N)=O)sn1` [Example 44, (R)-5-(1-amino-4,4,4-trifluoro-1-oxobutan-2-ylamino)-3-(3-methylisothiazol-5-ylamino)picolinamide], for which the pIC50 was greater than 9.00.

Take `Cc1cc(Nc2cc(N[C@H](CC3CCCCC3)C(N)=O)cnc2C(N)=O)sn1` [Example 18, (R)-5-(1-amino-3-cyclohexyl-1-oxopropan-2-ylamino)-3-(3-methylisothiazol-5-ylamino)picolinamide]: the negative-log IC50 (pIC50) is 7.00 to 8.00.

Turning to `Cc1cc(Nc2cc(N[C@H](C)C(N)=O)cnc2C(N)=O)sn1` [Example 43, (R)-5-(1-amino-1-oxopropan-2-ylamino)-3-(3-methylisothiazol-5-ylamino)picolinamide], the pIC50 is 7.00 to 8.00.

On to `NC(=O)c1ncc(N[C@@H]2CCCC[C@@H]2N)cc1Nc1cccc(-c2ncco2)c1` [Example 55, 5-(((1R,2S)-2-aminocyclohexyl)amino)-3-((3-(oxazol-2-yl)phenyl)amino)picolinamide], for which the pIC50 was 7.00 to 8.00.

Consider `COC[C@@H](Nc1cnc(C(N)=O)c(Nc2cc(C)ns2)c1)C(N)=O` [Example 48, (R)-5-(1-amino-3-methoxy-1-oxopropan-2-ylamino)-3-(3-methylisothiazol-5-ylamino)picolinamide], for which the pIC50 was 7.00 to 8.00.

For the compound `NC(=O)c1ncc(N[C@@H]2CCCC[C@@H]2N)cc1Nc1ccc2ncccc2c1` [Example 27, 5-((1R,2S)-2-aminocyclohexylamino)-3-(quinolin-6-ylamino)picolinamide], the pIC50 is 7.00 to 8.00.

In the case of `Cc1nsc(Nc2cc(N[C@H](CC3CC3)C(N)=O)cnc2C(N)=O)c1I` [Example 31, (R)-5-((1-amino-3-cyclopropyl-1-oxopropan-2-yl)amino)-3-((4-iodo-3-methylisothiazol-5-yl)amino)picolinamide], the pIC50 was 6.00 to 7.00.

On to `NC(=O)c1ncc(N[C@@H]2CCCC[C@@H]2N)cc1Nc1cncs1` [Example 56, 5-(((1R,2S)-2-aminocyclohexyl)amino)-3-(thiazol-5-ylamino)picolinamide], for which the negative-log IC50 (pIC50) was less than 6.00.

Turning to `Cn1cc(Nc2cc(N[C@@H]3CCCC[C@@H]3N)cnc2C(N)=O)cn1` [Example 24, 5-((1R,2S)-2-aminocyclohexylamino)-3-(1-methyl-1H-pyrazol-4-ylamino)picolinamide], the pIC50 was 6.00 to 7.00.

Regarding `NC(=O)c1ncc(N[C@@H]2CCOC[C@@H]2N)cc1Nc1cc(-c2cccnc2)no1` [Example 53, 5-((3R,4R)-3-aminotetrahydro-2H-pyran-4-ylamino)-3-(3-(pyridin-3-yl)isoxazol-5-ylamino)picolinamide], the pIC50 is 7.00 to 8.00.

As to `CCc1cc(Nc2cc(N[C@@H](C(N)=O)C(C)C)cnc2C(N)=O)sn1` [Example 33, (R)-5-(1-amino-3-methyl-1-oxobutan-2-ylamino)-3-(3-ethylisothiazol-5-ylamino)picolinamide], the pIC50 was 7.00 to 8.00.

Take `NC(=O)c1ncc(N[C@@H]2CCCC[C@@H]2N)cc1Nc1cc(C2CC2)no1` [Example 34, 5-((1R,2S)-2-aminocyclohexylamino)-3-(3-cyclopropylisoxazol-5-ylamino)picolinamide]: the negative-log IC50 (pIC50) was 8.00 to 9.00.

Turning to `Cc1cc(Nc2cc(N[C@@H]3CCOC[C@@H]3N)cnc2C(N)=O)sn1` [Example 23, 5-((3R,4R)-3-aminotetrahydro-2H-pyran-4-ylamino)-3-(3-methylisothiazol-5-ylamino)picolinamide], the pIC50 was 8.00 to 9.00.

Regarding `CC(C)(C)[C@@H](Nc1cnc(C(N)=O)c(Nc2cc(C3CC3)ns2)c1)C(N)=O` [Example 39, (R)-5-(1-amino-3,3-dimethyl-1-oxobutan-2-ylamino)-3-(3-cyclopropylisothiazol-5-ylamino)picolinamide], the pIC50 is 7.00 to 8.00.

On to `CC(C)[C@@H](Nc1cnc(C(N)=O)c(Nc2cc(C3CC3)no2)c1)C(N)=O` [Example 35, (R)-5-(1-amino-3-methyl-1-oxobutan-2-ylamino)-3-(3-cyclopropylisoxazol-5-ylamino)picolinamide], for which the pIC50 is 7.00 to 8.00.

Regarding `CC(C)C[C@@H](Nc1cnc(C(N)=O)c(Nc2cc(-c3ccncc3)no2)c1)C(N)=O` [Example 47, (R)-5-(1-amino-4-methyl-1-oxopentan-2-ylamino)-3-(3-(pyridin-4-yl)isoxazol-5-ylamino)picolinamide], the pIC50 was 8.00 to 9.00.

Take `Cc1cc(Nc2cc(N[C@H]3CC[C@@H](N)CC3)cnc2C(N)=O)sn1` [Example 26, 5-((1S,4S)-4-aminocyclohexylamino)-3-(3-methylisothiazol-5-ylamino)picolinamide]: the pIC50 was 7.00 to 8.00.

On to `CC[C@@H](Nc1cnc(C(N)=O)c(Nc2cnc3cccnc3c2)c1)C(N)=O` [Example 54, (R)-3-(1,5-naphthyridin-3-ylamino)-5-(1-amino-1-oxobutan-2-ylamino)picolinamide], for which the pIC50 was 6.00 to 7.00.

With `NC(=O)c1ncc(N[C@@H]2CCCC[C@@H]2N)cc1Nc1cnc2ccccc2c1` [Example 13, 5-((1R,2S)-2-aminocyclohexylamino)-3-(quinolin-3-ylamino)picolinamide], the negative logarithm of the IC50 (pIC50) is 6.00 to 7.00.

With `NC(=O)c1ncc(N[C@@H]2CCCC[C@@H]2N)cc1Nc1cnn2ccccc12` [Example 25, 5-((1R,2S)-2-aminocyclohexylamino)-3-(pyrazolo[1,5-a]pyridin-3-ylamino)picolinamide], the pIC50 was 6.00 to 7.00.

Turning to `NC(=O)c1ncc(N[C@H](CC(F)(F)F)C(N)=O)cc1Nc1ccc2cccnc2c1` [Example 51, (R)-5-(1-amino-4,4,4-trifluoro-1-oxobutan-2-ylamino)-3-(quinolin-7-ylamino)picolinamide], the pIC50 was 8.00 to 9.00.

With `CC(C)(C)C[C@@H](Nc1cnc(C(N)=O)c(Nc2cc(F)c3ncccc3c2)c1)C(N)=O` [Example 40, (R)-5-(1-amino-4,4-dimethyl-1-oxopentan-2-ylamino)-3-(8-fluoroquinolin-6-ylamino)picolinamide], the pIC50 is 7.00 to 8.00.

On to `CC(C)(C)C[C@@H](Nc1cnc(C(N)=O)c(Nc2ccc3cccnc3c2)c1)C(N)=O` [Example 41, (R)-5-(1-amino-4,4-dimethyl-1-oxopentan-2-ylamino)-3-(quinolin-7-ylamino)picolinamide], for which the pIC50 was 8.00 to 9.00.

The values are drawn from patent US20140113931A1, “SUBSTITUTED PICOLINAMIDE KINASE INHIBITORS” (Portola Pharmaceuticals, Inc., priority 2012, published 2014).
